# Test results taken from US20240043933A1, “METHODS FOR DETECTING AND PREDICTING BREAST CANCER” (UCL Business Ltd, priority 2020, published 2024).
# Entries after “also recorded” stand apart in the source; their conditions may differ.
# What was measured:
# [1] = tested on: WID-Breast29 (mean methylation level of 37 CpGs) in breast tissue; assay: WID-Breast29 in breast biopsies before and after treatment (clinical trials, Set 3); assay type: in vivo, human
# Description: Set 3: to assess the performance of the WID-Breast29 test monitoring preventive measures in real time. The samples were obtained from two clinical trials (FIG. 4) as follows.
# Trial 1 was “Mifepristone treatment prior to insertion of a levonorgestrel releasing intrauterine system for improved bleeding control—a randomised controlled trial” (1) (EudraCT number: 2009-009014-40; Regional ethical review board at Karolinska Institutet permit 2009/144-31/4). The primary objective was to assess the effect of mifepristone pre-treatment on the initial bleeding pattern after insertion of a levonorgestrel releasing intrauterine system. An included secondary objective was to study the effect of mifepristone on breast tissue.
# Trial 2 was “The Effect of a Progesterone Receptor Modulator on Breast Tissue in Women with BRCA-1 and -2 Mutations” (ClinicalTrials.gov Identifier: NCT01898312; regional ethical review board at Karolinska Institutet permit 2012/729 31/1). The core objective of this ongoing study is to assess the safety and effect of treatment with mifepristone on epithelial cell proliferation in human breast tissue in women with BRCA-1 or -2 mutations prior to protective mastectomy.
# (§1) Study subjects for both trials were healthy premenopausal women aged 18 and above with regular menstrual cycles lasting 25-35 days and with no contraindications to mifepristone. The main exclusion criteria were: use of any hormonal or intrauterine contraception and pregnancy or breastfeeding two months prior to the study; a history of breast cancer or other malignancies and adnexal abnormality upon transvaginal ultrasound examination. All women were instructed to use barrier contraceptive methods throughout the duration of the study. After signing an informed consent, study subjects in both trials were randomised 1:1 or 1:2 into the vitamin arm (Triobe®—used as a comparator in these studies) or mifepristone arm in Trial 1 and Trial 2, respectively. One group (i.e. 16 BRCA carriers and 28 controls) was treated with 50 mg mifepristone (one quarter of 200 mg Mifegyne®, Exelgyn, Paris, France) every other day for two months in Trial 1 (n=28) and three months in Trial 2 (n=16) starting on the first day of the menstrual cycle. As mifepristone is only available in 200 mg tablets in Sweden, a study nurse divided the tablets into 4 parts (each 50 mg) and instructed the study subjects to take one part every other day. The other group (i.e. 8 BRCA carriers and 29 controls) received Triobe® tablets which are visually identical to mifepristone and were also divided into 4 parts [one quarter of TrioBe® contains 0.125 mg cyanocobalamin (Vitamin B12), 0.2 mg folic acid (Vitamin B9), and 0.75 mg Pyridoxinhydrochlorid (Vitamin B6)]. Tablets were dispensed for two weeks at a time. […]
# [2] = tested on: WID-Breast5 (mean PMR of MTA1, HOXD12, LHX8, NEUROD1, CBLN4) in breast tissue; assay: WID-Breast5 (MethyLight PMR) in breast biopsies before and after treatment (Set 3); assay type: in vivo, human
# Description: as §1, with “time. Core needle aspiration biopsies were collected during the luteal phase before treatment and at the end of treatment during the luteal phase (vitamin treatment) or corresponding time of the cycle (mifepristone treatment). The biopsies were collected under ultrasound guidance from the upper outer quadrant of one breast using a 14 Gauge needle with an outer diameter of 2.2 mm. The end-of-treatment breast biopsy was taken from the same area. From Trial 1, 12 women from each of the vitamin and mifepristone groups were included in this study; of these, 11 and 9 women, respectively, had provided sufficient DNA from the pre- and post-treatment biopsies for subsequent processing and analysis.” for “time.”
# Sodium bisulfite conversion of genomic DNA and the MethyLight assay were performed as previously described (A. Jones et al., Role of DNA methylation and epigenetic silencing of HAND2 in endometrial cancer development. PLoS Med 10, e1001551 (2013)). […] The percentage of fully methylated molecules at a specific locus has been calculated by dividing the GENE:COL2A1 ratio of a sample by the GENE:COL2A1 ratio of SssI-treated human white blood cell DNA and multiplied by 100. […]
# [3] = tested on: BRCA-mediated breast cancer; conditions: rodents; cited from earlier work
# mammary cancer = conditions: mice; cited from earlier work
# breast tissue = conditions: healthy women; cited from earlier work
# [4] = tested on: breast epithelial proliferation; conditions: three premenopausal volunteers; cited from earlier work
# [5] = tested on: contralateral breast cancer; conditions: postmenopausal breast cancer patients; cited from earlier work
# [6] = biopsies before and after 2-3 month treatment
Compound,BRCA mutant volunteers not showing a reduction of the WID-Breast29 after treatment ([1]; BRCA mutant volunteers (4/11)) [%],"women exhibiting a lower WID-Breast29 after treatment ([1]; all women of the group (15 vitamins, 20 mifepristone), biopsies before and after 2-3 month treatment) [%]","change in WID-Breast29 after treatment (paired-sample t-test) [1, 6]",control volunteers showing a reduction of the WID-Breast29 after treatment ([1]; healthy control volunteers (n=9)) [%],BRCA mutant volunteers not showing a reduction of the WID-Breast5 after treatment ([2]; BRCA mutant volunteers (6/10)) [%],"women exhibiting a lower WID-Breast5 after treatment ([2]; all women of the group (12 vitamins, 16 mifepristone), biopsies before and after 2-3 month treatment) [%]","change in WID-Breast5 after treatment (paired-sample t-test) [2, 6]",control volunteers showing a reduction of the WID-Breast5 after treatment ([2]; healthy control volunteers (n=6)) [%],prevention of BRCA-mediated breast cancer formation [3],effect on mammary cancer development (mammary cancer),effect on proliferation in breast tissue (breast tissue),effect on breast epithelial proliferation [4],impact on the incidence of contralateral breast cancer [5]
CC#C[C@]1(O)CC[C@H]2[C@@H]3CCC4=CC(=O)CCC4=C3[C@@H](c3ccc(N(C)C)cc3)C[C@@]21C [mifepristone],36,80,highly significant reduction; also recorded: significantly reduced,100,60,75,highly significant reduction; also recorded: significantly reduced,100,can be prevented,reduce mammary cancer development,antiproliferative effect,–,–
Denosumab: fully humanised monoclonal antibody that binds RANKL,–,–,–,–,–,–,–,–,–,–,–,reduce breast epithelial proliferation,does not appear to impact
